Measured values: patent publication US20020111305A1, “Antiviral peptides” (priority 1998, published 2002)
Where no end group is shown, it is not given here.

Columns and labels:
HIV-1 III-b = assay: HIV-1 neutralization assay (syncytia-forming on MT-2 cells); format: cell-based, Human Immuno-deficiency Virus Type 1; details: day 21; 457 TCID50 HIV per ml; 2 hours at 37° C.; maximum 800 μg/ml
Description: (§1) A neutralization assay was performed on HIV-1 III-b as substantially described by Groenink M. et al., J. Virol 69, 523-527 (1995). In short, this assay comes down to the virus-neutralizing capacity of the different peptides being tested with an inoculum of 457 TCID50HIV per ml per neutralization, which is incubated at 37° C. for two hours with a twofold dilution series of the peptide for testing (maximum 800 μg/ml final concentration). The incubations are performed in a 5 mM phosphate buffer. On day 7, 14 and 21 the neutralization is assessed on the basis of the detected cytopathic effect (syncytia-forming) on MT-2 cells.

[1] = system: Herpes Simplex Virus (HSV); assay: Antiviral activity against Herpes Simplex Virus (TCID50 on Vero-cells after pre-incubation with peptide); format: cell-based
Description: In test phials 10 μl HSV (Department of Virology Academisch Ziekenhuis Leiden (Leiden University Hospital), lab strain 96-6700 P (TCID50 10^5-10^6), was supplemented with peptide and NaPB to 200 μl. For the positive control the peptide was replaced by a human neutrophil defensin pool (HNP1-3). The test phials were subsequently incubated at 37° C. for 3 hours. Tenfold dilutions were then made in Dulbecco's Modified Eagles Medium (DMEM) with 2% foetal calf serum (FSCi). Diverse peptides, synthesized in identical manner, were used as negative control in the experiments.
Vero-cells were isolated using detachment buffer (0.25% trypsin and 0.03% EDTA in PBS), washed and brought to a concentration of 2×10^5 cells per ml DMEM +2% FCSi. In 96 wells-plates (Nunclon) 100 μl cell suspension (2×10^4 cells) was added per well. Acyclovir (ACV) was added as control to several wells about two hours (t=−2 hours) before infection. 50 μl of a dilution was added to each well at the point in time t=0.
After 3 days incubation in a CO2-stove of 37° C. the cytopathological effect (cpe) was scored by counting under the microscope and the TCID50 (tissue culture […] dose) was determined using the Reed & Muench method (Dulbecco & Ginsberg, “Virology”, JB Lippincott Co., Philadelphia, 2nd edition, 1988).
The effectiveness of peptide 10 in time was then determined. […]

MT-2 cells = assay: Cytotoxicity seen in the HIV-1 neutralization assay; format: cell-based; details: 800 μg/ml
Description: as §1

| Sequence | neutralizing capacity: μg/ml necessary for neutralization (HIV-1 III-b) | activity against HSV compared with HNP, dilution series (FIG. 3) ([1]; in high concentrations) | effectiveness against HSV compared with acyclovir and HNP (FIG. 1) ([1]; peptide at sufficiently high concentrations (50 μg/ml), 3 hours at 37° C.) | cytotoxicity at the highest concentration (MT-2 cells) |
| --- | --- | --- | --- | --- |
| DSHAKRHHGYKRKFHEKHHSHRGY [his 5, reference compound] | no neutralization | – | – | – |
| KRKFHEKHHSHRGY [dh-5, the C-terminal part of histatin 5, reference compound] | no neutralisation | – | – | – |
| KRLFKELLFSLRKY [peptide 4] | 200 µg/mL | – | – | – |
| KRLFKKLLFSLRKY [peptide 10] | 200 µg/mL | more effective than HNP | at least as effective as acyclovir and HNP | – |
| LLLFLLKKRKKRKY [peptide 11, LLLFLLKKRKKRKY] | – | – | – | # peptide 11 was cytoxic at the highest concentration (800 μg/ml). |
